Data: ChEMBL document CHEMBL1128409, “Potent inhibitors of proteasome” (J Med Chem, 1995)
Where a SMILES comes first, the peptide text is derived from it. The star is where a group is joined. MeOSuc = COC(=O)CCC(=O)*

Target: 20S proteasome
Assay: Compound was evaluated for inhibitory activity against 20S proteasome from human liver and brain
Assay type: subcellular

SMILES	IC50
CC(C)CC(C=O)NC(=O)C(CCC/N=C(\N)N[N+](=O)[O-])NC(=O)C(CCCCCCCCN1C(=O)c2ccccc2C1=O)C1CCCC1 (configuration not stated)	0.002 µM
CC(C)CC(C=O)NC(=O)C(CCC/N=C(\N)N[N+](=O)[O-])NC(=O)C(CCCCCCCCC#N)C1CCCC1 (configuration not stated)	0.006 µM
COC(=O)CCCCCCCC(=O)NC(CCC/N=C(\N)N[N+](=O)[O-])C(=O)NC(C=O)CC(C)C (configuration not stated)	0.04 µM

Other lines, results leading:

IC50	SMILES
1 µM	COC(=O)CCC(=O)N[C@@H](CCC(=O)O)C(=O)N[C@H](C(=O)N[C@@H](CCCCN)C(=O)N[C@@H](Cc1ccccc1)C(=O)O)C(C)C (MeOSuc-EVKF-OH)
0.095 µM	COC(=O)CCCCCCCC(=O)NC(CCC/N=C(\N)NS(=O)(=O)c1c(C)cc(OC)c(C)c1C)C(=O)NC(C=O)CC(C)C (configuration not stated)
0.02 µM	COC(=O)CCCCCCCC(=O)NC(CCC/N=C(\N)NS(=O)(=O)c1c(C)c(C)c2c(c1C)CCC(C)(C)O2)C(=O)NC(C=O)CC(C)C (single isomer, unassigned)
> 3 µM	COC(=O)CCCCCCCC(=O)N[C@H](CCC/N=C(\N)NS(=O)(=O)c1c(C)c(C)c2c(c1C)CCC(C)(C)O2)C(=O)NC(C=O)CC(C)C (some centres not stated)
